For the assay, the system named is Parkinson's patients. The experiment in a line: Patient studies of butyric acid/butyrate given with physician-directed medication. The class given is in vivo, human. The procedure:
The effect of butyric acid/butyrate was investigated in patient studies in which more than 1,000 test subjects have participated for at least one year each. A total amount of 6 g butyric acid or butyrate (as salt) was administered together with the physician-directed medication (levodopa etc.) in three daily doses with meals in the morning, at noon and in the evening.
This is especially important because the usual medication for Parkinson's patients, not only with levodopa, can lead to considerable side effects such as dizziness, nausea, tachyarrhythmia, psychosis, dyskinesia and circulatory problems.

As for `CCCC(=O)O` [butyric acid/butyrate, butyric acid], the “general condition, in particular with respect to the motor functions” value (more than 1,000 test subjects, at least one year each, total 6 g butyric acid or butyrate (as salt) in three daily doses with meals, together with levodopa etc.) is “Significant improvements”. Also, the “reduction of the amount of dopamine used by Parkinson's patients” value (patients treated with butyric acid/butyrate) was “at least 50%”. Besides, the “reduction of the amount of dopamine used by Parkinson's patients, in some cases” value (patients treated with butyric acid/butyrate, in some cases) is on record as “up to 90%”.

The record behind these values is patent publication US20220313634A1, “AGENT FOR THE PROPHYLACTIC AND/OR SUPPORTIVE THERAPEUTIC TREATMENT OF PARKINSON'S DISEASE” (priority 2017, published 2022).
